Our source for the MIC, minimum bactericide concentration and minimum inhibitory concentration values is US11192913B2, “C-glycoside amine derivatives and methods of making” (The United States of America, as Represented by the …, priority 2020, dated 2021).

Values after ≈ are worked out from the molar mass of the structure shown. Where two headings read alike, the source gives them in different places.

One assay concerns Streptococcus mutans. Conditions: Watanabe et al. 2000; cited from earlier work.
Assay [1] relates to Escherichia coli. Conditions: Zhao et al. 2015; cited from earlier work.
The test system of another assay is Bacillus subtilis. To be noted: Zhao et al. 2015; cited from earlier work.
The test system of a further assay is B. cereus. To be noted: Staron et al. 2018; cited from earlier work.
Assay [2] deals with Escherichia coli. The experiment in a line: Antimicrobial activity. The assay is classed as cell-based. To be noted: gram negative Escherichia. The protocol:
(§1) When surfactants are used in detergent formulations, antibiotic activity is an important trait. The antibiotic activity of the surfactants prepared from the saccharides glucose, maltose, and lactose, and 2-undecanone were measured against several microorganisms of interest in the food, human health, and agricultural areas. […] The CMC values for the β-C-glycoside 2-aminoundecanes were 0.1-5.5 mM.
(§2) Summary: β-C-glycoside ketone derivatives of saccharides glucose, lactose, and maltose were converted to amines via a reductive amination using 2 wt % Rh/HMS (Rh/C or Rh/Al2O3 can be used) in ammoniacal methanol under about 500 psi H2 (pressure can be about 350 psi). The amines were isolated and then these molecules were used as the amine in the reductive amination of 2-undecanone prepared from the seed oil of Cuphea. The resulting β-C-glycoside 2-aminoundecanes were characterized by MALDI-TOF mass spectrometry, 2D nmr, and CHN analyses. The detergency of the products was measured by fluorescence detection to measure the critical micelle concentration.

For a further assay, the system named is Envinia amylovora. The experiment in a line: Antimicrobial activity. To be noted: gram negative Erwinia. The assay is classed as cell-based. The protocol: as §1, §2
The test system of assay [3] is all gram positive organisms tested. To be noted: against all gram positive organisms tested. The protocol: as §1, §2

A word on the MIC: it is the lowest concentration found to suppress growth.

Turning to Galactose laurate, in the assay with Streptococcus mutans, the MIC is 140 µM.

With sucrose caprate, the figures for the MIC with Escherichia coli [1] and with Bacillus subtilis were 10000 µM and 2500 µM, respectively.

dodecanoyl lactose: the MIC with B. cereus is 5900 µM.

Take `CCCCCCCCCC(C)NC(C)C[C@@H]1O[C@H](CO)[C@@H](O)[C@H](O)[C@H]1O` (some centres unmarked) [glucose derivative, Glucose C-glycoside 2-aminoundecane]: the minimum inhibitory concentration (MIC) with Escherichia coli [2] and in the assay on Envinia amylovora was 620 µM (≈ 233 µg/mL) in each case. In addition, the minimum bactericide concentration in assay [3] turned out to be 620 µM (≈ 233 µg/mL). The minimum inhibitory concentration in assay [3] was 310 µM (≈ 116 µg/mL).
